Here are results for eight substances from US20230151057A1, “LACTIC ACID BACTERIA GROWTH PROMOTER” (Asahi Group Holdings, Ltd., priority 2020, published 2023).

Ends that are not written are not given here.

Common to all, as to type: cell-based
Assay [1] deals with Lactobacillus acidophilus (FERM BP-4981). The experiment in a line: Growth-promoting effect on Lactobacillus acidophilus in modified MRS medium (particle count). The following applies: Example 2, peptide 0.25 mg/mL, 37° C., 18 hours; for Rate of increase: control = 100%. The text has this:
Nitrogen sources in MRS medium were reduced to find a medium composition that achieves a total bacterial count of about 1.0×10^8 cell/mL to 1.0×10^9 cell/mL after culturing of each of the six bacterial strains Lactobacillus gasseri (FERNM BP-11331), Lactobacillus acidophilus (FERM BP-4981), Lactobacillus amylovorus (FERM BP-11255), Lactobacillus curvatus (NITE P-02033), Lactobacillus plantarum, and Lactobacillus brevis. This composition, named “modified MRS medium”, was used for the evaluation. Here, for the composition of the MRS medium, a composition described in a medium catalog provided by BD (Becton, Dickinson and Company) was used as a reference. The compositions of the MRS medium and the modified MRS medium are as follows. By chemical synthesis, 28 kinds of candidate peptides having the sequences shown below were provided. Each candidate peptide was added to the modified MRS medium at 0.25 mg/mL to provide a medium to be evaluated. The lactic acid bacterium Lactobacillus gasseri was inoculated at 1.0×10^7 cells/mL to the provided medium to be evaluated, and culture was carried out at a temperature of 37° C. for a culture period of 18 hours. The resulting culture was collected, and subjected to measurement of the particle concentration (particles/mL) as a characteristic value that can be used as an index of the bacterial cell growth, using a particle count analyzer (CDA-1000, Sysmex). The rate of increase (%) was calculated relative to a control value obtained using a medium to which no peptide was added, which was taken as 100%. For eight kinds of candidate peptides having the sequences shown below, the growth-promoting effect on a lactic acid bacterium was evaluated in the same manner as in Example 1 except that Lactobacillus acidophilus was used instead of Lactobacillus gasseri.

Assay [2] concerns Lactobacillus amylovorus (FERM BP-11255). Description: Growth-promoting effect on Lactobacillus amylovorus in modified MRS medium (particle count). The following applies: Example 3, peptide 0.25 mg/mL, 37° C., 18 hours; for Rate of increase: control = 100%. The source says: Nitrogen sources in MRS medium were reduced to find a medium composition that achieves a total bacterial count of about 1.0×10^8 cell/mL to 1.0×10^9 cell/mL after culturing of each of the six bacterial strains Lactobacillus gasseri (FERNM BP-11331), Lactobacillus acidophilus (FERM BP-4981), Lactobacillus amylovorus (FERM BP-11255), Lactobacillus curvatus (NITE P-02033), Lactobacillus plantarum, and Lactobacillus brevis. This composition, named “modified MRS medium”, was used for the evaluation. Here, for the composition of the MRS medium, a composition described in a medium catalog provided by BD (Becton, Dickinson and Company) was used as a reference. The compositions of the MRS medium and the modified MRS medium are as follows. By chemical synthesis, 28 kinds of candidate peptides having the sequences shown below were provided. Each candidate peptide was added to the modified MRS medium at 0.25 mg/mL to provide a medium to be evaluated. The lactic acid bacterium Lactobacillus gasseri was inoculated at 1.0×10^7 cells/mL to the provided medium to be evaluated, and culture was carried out at a temperature of 37° C. for a culture period of 18 hours. The resulting culture was collected, and subjected to measurement of the particle concentration (particles/mL) as a characteristic value that can be used as an index of the bacterial cell growth, using a particle count analyzer (CDA-1000, Sysmex). The rate of increase (%) was calculated relative to a control value obtained using a medium to which no peptide was added, which was taken as 100%. For eight kinds of candidate peptides having the sequences shown below, the growth-promoting effect on a lactic acid bacterium was evaluated in the same manner as in Example 1 except that Lactobacillus amylovorus was used instead of Lactobacillus gasseri.

The test system of assay [3] is Lactobacillus curvatus (NITE P-02033). The experiment in a line: Growth-promoting effect on Lactobacillus curvatus in modified MRS medium (particle count). The following applies: Example 4, peptide 0.25 mg/mL, 37° C., 18 hours; for Rate of increase: control = 100%. The text has this: Nitrogen sources in MRS medium were reduced to find a medium composition that achieves a total bacterial count of about 1.0×10^8 cell/mL to 1.0×10^9 cell/mL after culturing of each of the six bacterial strains Lactobacillus gasseri (FERNM BP-11331), Lactobacillus acidophilus (FERM BP-4981), Lactobacillus amylovorus (FERM BP-11255), Lactobacillus curvatus (NITE P-02033), Lactobacillus plantarum, and Lactobacillus brevis. This composition, named “modified MRS medium”, was used for the evaluation. Here, for the composition of the MRS medium, a composition described in a medium catalog provided by BD (Becton, Dickinson and Company) was used as a reference. The compositions of the MRS medium and the modified MRS medium are as follows. By chemical synthesis, 28 kinds of candidate peptides having the sequences shown below were provided. Each candidate peptide was added to the modified MRS medium at 0.25 mg/mL to provide a medium to be evaluated. The lactic acid bacterium Lactobacillus gasseri was inoculated at 1.0×10^7 cells/mL to the provided medium to be evaluated, and culture was carried out at a temperature of 37° C. for a culture period of 18 hours. The resulting culture was collected, and subjected to measurement of the particle concentration (particles/mL) as a characteristic value that can be used as an index of the bacterial cell growth, using a particle count analyzer (CDA-1000, Sysmex). The rate of increase (%) was calculated relative to a control value obtained using a medium to which no peptide was added, which was taken as 100%. For eight kinds of candidate peptides having the sequences shown below, the growth-promoting effect on a lactic acid bacterium was evaluated in the same manner as in Example 1 except that Lactobacillus curvatus was used instead of Lactobacillus gasseri.

With AGPQTF, the Particle concentration in assay [1] stood at 1.02e+08 mL⁻¹; in assay [2], 1.93e+08 mL⁻¹; in assay [3] it was 1.58e+08 mL⁻¹. The Rate of increase in assay [1] is 105%; in assay [2] it was 118%; in assay [3], 111%.

In the case of “APKPDYPIA (listed as Saccharomyces cerevisiae) [Ala-Pro-Lys-Pro-Asp-Tyr-Pro-Ile-Ala]”, the Particle concentration in assay [1] was determined as 9.73e+07 mL⁻¹; in assay [2] it was 1.83e+08 mL⁻¹; in assay [3], 1.6e+08 mL⁻¹. For the same substance, the results for the Rate of increase in assay [1], in assay [2] and in assay [3] were 100%, 112% and 112%, respectively.

For the substance Leu-Phe [LF], the Particle concentration in assay [1] stood at 8.75e+07 mL⁻¹; in assay [2], 2.08e+08 mL⁻¹; in assay [3] it was 2.22e+08 mL⁻¹. The Rate of increase in assay [1] is on record as 121%; in assay [2], 109%; in assay [3], 124%.

Turning to “Leu-Pro-Trp-Gly (LPWG; listed as Saccharomyces cerevisiae)”, the Particle concentration was 1.03e+08 mL⁻¹ in assay [1], 2.13e+08 mL⁻¹ in assay [2] and 1.97e+08 mL⁻¹ in assay [3]. Moreover, the results for the Rate of increase in assay [1], in assay [2] and in assay [3] were 113%, 111% and 109%, respectively.

Turning to “Pro-Ser-Val-Phe (PSVF; listed as Saccharomyces cerevisiae)”, the Particle concentration in assay [1] amounted to 1e+08 mL⁻¹; in assay [2], 1.92e+08 mL⁻¹; in assay [3], 1.68e+08 mL⁻¹. The Rate of increase in assay [1] was determined as 103%; in assay [2], 118%; in assay [3], 119%.

Take Pro-Val-Phe [PVF]: the Particle concentration was determined as 1.01e+08 mL⁻¹ in assay [1], 2.07e+08 mL⁻¹ in assay [2] and 1.71e+08 mL⁻¹ in assay [3]. Also, the Rate of increase in assay [1] stood at 111%; in assay [2] it was 108%; in assay [3] it was 95%.

As for Pro-Val-Tyr [PVY], the Particle concentration in assay [1] was 1.1e+08 mL⁻¹; in assay [2] it was 1.98e+08 mL⁻¹; in assay [3], 1.64e+08 mL⁻¹. Further, the figures for the Rate of increase in assay [1], in assay [2] and in assay [3] were 113%, 121% and 116%, respectively.

For the substance “Val-Pro-Ala-Phe (VPAF; listed as Saccharomyces cerevisiae)”, the Particle concentration was 1.04e+08 mL⁻¹ in assay [1], 2.07e+08 mL⁻¹ in assay [2] and 2.15e+08 mL⁻¹ in assay [3]. Also, the Rate of increase stood at 113% in assay [1], 108% in assay [2] and 117% in assay [3].
